The assay addresses T1, GRK2 (βARK-1) (Homo sapiens, UniProt P25098).
T1 sequence (P25098 1-689): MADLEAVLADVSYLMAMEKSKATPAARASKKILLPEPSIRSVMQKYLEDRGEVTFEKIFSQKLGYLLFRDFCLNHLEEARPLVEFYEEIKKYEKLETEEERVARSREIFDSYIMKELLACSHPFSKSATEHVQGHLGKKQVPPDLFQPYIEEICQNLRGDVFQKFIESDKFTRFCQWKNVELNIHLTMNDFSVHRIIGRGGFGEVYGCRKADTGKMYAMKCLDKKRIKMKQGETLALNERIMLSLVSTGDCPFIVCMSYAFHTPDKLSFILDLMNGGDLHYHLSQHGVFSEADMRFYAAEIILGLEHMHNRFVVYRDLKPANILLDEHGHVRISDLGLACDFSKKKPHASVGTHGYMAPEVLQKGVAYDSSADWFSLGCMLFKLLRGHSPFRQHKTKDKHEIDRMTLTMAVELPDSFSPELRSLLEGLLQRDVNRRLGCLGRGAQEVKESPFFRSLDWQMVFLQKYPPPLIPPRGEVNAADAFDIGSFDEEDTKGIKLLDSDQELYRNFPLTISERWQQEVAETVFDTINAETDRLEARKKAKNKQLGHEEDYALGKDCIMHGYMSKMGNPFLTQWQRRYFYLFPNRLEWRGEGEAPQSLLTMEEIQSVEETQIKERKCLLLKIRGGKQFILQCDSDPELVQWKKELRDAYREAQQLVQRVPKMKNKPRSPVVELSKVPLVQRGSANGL
Briefly: GRK2 (βARK-1) kinase assay: 33P phosphorylation of biotinylated bovine tubulin dimers, scintillation counting. Type of assay: biochemical. The settings on record: 100 nM GRK2 pre-incubated with inhibitor 30 min at room temperature; 250 nM tubulin, 3 μM ATP, [γ-33P]-ATP, 30 min reaction. The procedure: The assay determines phosphorylation of biotinylated bovine tubulin dimers (250 nM; TEBU-BIO, # T333) coated to 384 well StreptaWell plates by 100 nM GRK2 which has been pre-incubated with inhibitor cpd. for 30 minutes at room temperature in assay buffer (20 mM Tris-HCl pH 7.4, 2 mM EDTA) containing 2.25% DMSO. The phosphorylation reaction was started by adding tubulin, MgCl2 (10 mM), ATP (3 μM), [γ-^33P]-ATP (0.4 μCi/40 μl) to the preincubated GRK2/compound complex. Then the assay mix was incubated for 30 min at room temperature before the kinase reaction was stopped adding 0.8% BSA, 0.8% Triton X 100, 80 mM EDTA and 400 μM ATP) followed by an 2-24 h incubation at +4° C. Due to the high energy of the […] free ^33P-ATP is removed by a washing step (3× with 100 μl 1×PBS pH 8.0) using a Tecan Power washer 384 to reduce background activity. Bound ^33P is determined by scintillation counting (60 μl scintillator, Ultimagold MV, 30 sec mix) using a Microbeta-counter (delay time 30 min).

What is called IC50 is the concentration needed to halve the response being measured. A high value points to weaker potency. Compound `Cn1cc(-c2cc(C(N)=O)nc3[nH]ncc23)c2cc(OCC3CCCNC3)ccc21` (stereo not shown) [Example 3, 4-(1-methyl-5-(piperidin-3-ylmethoxy)-1H-indol-3-yl)-1H-pyrazolo(3,4-b)pyridine-6-carboxylic acid amide] yielded an IC50 of 700 nM.
For the compound `Cn1cc(-c2cc(C(N)=O)nc3[nH]ncc23)c2ccccc21` [Example 4], the half-maximal inhibitory concentration (IC50) stood at 270 nM.
On to `Cn1cc(-c2cc(C(N)=O)nc3[nH]ncc23)c2cc(OCC(N)=O)ccc21` [Example 8, 4-(5-Carbamoylmethoxy-1-methyl-1H-indol-3-yl)-1H-pyrazolo[3,4-b]pyridine-6-carboxylic acid amide], for which the IC50 came to 20 nM.
For `NC(=O)c1cc(-c2cccc(O)c2)c2cn[nH]c2n1` [Example 16], the IC50 came out at 2100 nM.
